This is an account of results in patent US20230181564A1, “Potent Tetrahydroquinolone Eliminates Apicomplexan Parasites” (The University of Chicago, priority 2020, published 2023).

Test [1] addresses T1, P. falciparum bc1 complex cytochrome c reductase (Pfbc1) (Plasmodium falciparum, UniProt Q02768).
T1 construct: Parasite extract was then prepared by disruption with a sonicating probe; endogenous in cells; host or cells: P. falciparum 3D7 blood-stage parasites freed by saponin, sonicated extract
T1 sequence (Q02768 1-376): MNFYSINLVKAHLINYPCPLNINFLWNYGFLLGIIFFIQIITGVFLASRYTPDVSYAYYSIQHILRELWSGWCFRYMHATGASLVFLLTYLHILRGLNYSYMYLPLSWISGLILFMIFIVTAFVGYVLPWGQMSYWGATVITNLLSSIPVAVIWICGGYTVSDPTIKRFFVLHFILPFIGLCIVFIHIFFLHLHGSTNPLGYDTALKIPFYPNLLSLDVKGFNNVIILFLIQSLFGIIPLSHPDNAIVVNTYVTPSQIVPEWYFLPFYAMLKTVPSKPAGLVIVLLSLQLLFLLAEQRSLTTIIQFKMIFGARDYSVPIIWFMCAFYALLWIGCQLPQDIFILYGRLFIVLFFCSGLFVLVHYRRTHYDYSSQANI
The experiment in a line: Pfbc1 native assay (cytochrome c reduction by parasite extract). It counts as biochemical. The note with it: atovaquone 1 μM positive control, mean±S.D., N=4. As for the experimental part:
Enzyme assays. P. falciparum 3D7 strain were obtained from the Liverpool School of Tropical Medicine. Protease cocktail inhibitor was obtained from Roche. Bradford protein assay dye reagent was obtained from Bio-Rad. All other reagents were obtained from Sigma-Aldrich. Decylubiquinol was produced as per Fisher et al. (2009). In brief, 25 mg of decylubiquinone were dissolved in 400 μl of nitrogen-saturated hexane. An equal volume of aqueous 1 M sodium dithionite was added, and the mixture vortexed until colorless. […] Concentrations of decylubiquinol was determined spectrophotometrically on a Cary 300 Bio UV/visible spectrophotometer (Varian, UK) from absolute spectra, using ε288-320=8.1 mM-1·cm^−1. […]
The protocol for the preparation of parasite extract was adapted from Fisher et al. Free parasites were prepared from infected erythrocytes pooled from five T75 flasks, by adding 5 volumes of 0.15% (w/v) saponin in phosphate-buffered saline (137 mM NaCl, 2.7 mM KCl, 1.76 mM K2HPO4, 8.0 mM Na2HPO4, 5.5 mM D-glucose, pH 7.4) for 5 min, followed by three washes by centrifugation in RPMI containing HEPES (25 mM), and a final resuspension in potassium phosphate buffer (50 mM K2HPO4, 50 mM KH2PO4, 2 mM EDTA, pH7.4) containing a protease inhibitor cocktail (Complete Mini; Roche). […] The protein concentration of the parasite extract was determined by Bradford protein assay (Bio-Rad). […]

In another test the target is T2, bovine cytochrome bc1 (Bos taurus, UniProt P00157).
T2 construct: Whole fresh bovine heart was collected after slaughter; from tissue; host or cells: bovine heart mitochondria; DDM-solubilised, DEAE-Sepharose, Sephacryl S-300, PEG fractionation
The experiment in a line: Bovine cytochrome bc1 activity assay. The test is classed as biochemical. As to conditions: read-out: Inhibition of bovine Cytbc1 activity. Here is the method: Bovine cytochrome bc1 activity assays. Bovine cytochrome bc, inhibition assay was carried out in 50 mM KPi pH 7.5, 2 mM EDTA, 10 mM KCN, 30 μM equine heart cytochrome c (Sigma Aldrich), and 2.5 nM bovine cytochrome bc, at room temperature. 20 mM inhibitors dissolved in DMSO were added to the assay at a desired concentration without prior incubation. […] The reaction was initiated by the addition of 50 μM decylubiquinol (Abcam). The reduced cytochrome c was monitored by the different absorption between 550 and 542 nm using extinction coefficient of 18.1 mM^−1 cm^−1 in a SPECTRAmax Plus 384 UV-visible Spectrometer. The initial kinetic rate is determined as a zero-order reaction and used as the specific activity of cytochrome bc1.

The test system of the next test is T. gondii Me49 strain. The experiment in a line: Established chronic Me49 infection in Balb/C mice, brain cysts. It counts as in vivo, Toxoplasma gondii. The note with it: treatment from day 30 after Me49 infection, IP daily for 14 days; p<0.03, p<0.01. Here is the method:
In separate experiments, Balb/C mice were infected IP with 20×10^3 T. gondii Me49 strain tachyzoites. In these separate studies of mice with established chronic infection, after 30 days, IP treatment with JAG21 was begun each day for 14 days. JAG21 was dissolved in DMSO and administered IP in a total volume of 0.05 mL. In experiments when tafenoquine was administered alone or with JAG21 in some groups 3 mg/kg tafenoquine was administered once on day −1 from when JAG21 treatment was initiated. Cysts in brain were quantitated on day 30, 16 days after discontinuing JAG21. Immunoperoxidase staining was performed. Parasite burden was quantitated in two ways. The first was using a positive pixel count algorithm of Aperio ImageScope software. Positive pixels were normalized to tissue area (mm^2). Briefly, automated quantitation was done by counting positive pixels per square area. The entire brain in one section was scanned for each mouse. The Cyst burden was quantitated as units of positive pixels per mm2. The average±S.E.M. numbers of mm2 per slide quantitated was 30.2±1.6 square mm per mouse for this quantification. […] Cysts on each slide for each condition in two biological replicate experiments were also quantitated by 2 separate observers independently and results compared with automated counting, separately.

For orientation: inhibition means the change of the read-out against control, counted positive when it falls. As for `Cc1[nH]c2c(c(=O)c1-c1ccc(Oc3ccc(OC(F)(F)F)cc3)cc1)CCCC2` [JAG021, 2-methyl-3-(4-(4-(trifluoromethoxy)phenoxy)phenyl)-5,6,7,8-tetrahydroquinolin-4-one], the inhibition at 1 µM in test [1] was found to be 86.4 ± 3.2%; on bovine cytochrome bc1 (1 μM) it was 63%. Besides, the inhibition at 0.1 µM at bovine cytochrome bc1 (0.1 μM) stood at 36%. In the test on T. gondii Me49 strain, the “Normal appearing cysts, free organisms and immunoperoxidase stained cysts in brain” value is “marked, statistically significant reduction”.
